Results reported in patent US20050282819A1, “Heterocyclic substituted indane derivatives and related compounds for the treatment of schizophrenia” (priority 2003, published 2005).

Tests used:
[1] = target: T1, serotonin 2A (5HT2A) receptor (Homo sapiens, UniProt P28223); experiment: Serotonin 2A binding ([3H]ketanserin, Swiss-h5HT2A cell membranes)
T1 construct: expressed in transfected cells; host or cells: Swiss-h5HT2A cells, membranes
Text: (§1) The ability of the compounds of this invention to bind to the dopamine D2 and serotonin 2A (5HT2A) receptors can be determined using conventional radioligand receptor binding assays. All receptors can be heterologously expressed in cell lines and experiments conducted in membrane preparations from the cell lines using procedures outlined below. IC50 concentrations can be determined by nonlinear regression of concentration-dependent reduction in specific binding. The Cheng-Prussoff equation can be used to convert the IC50 to Ki concentrations.
[^3H]Ketanserin binding to Swiss-h5HT2A cell membranes can be carried out in 250 μl of 50 mM Tris-HCl buffer pH 7.4. Duplicate samples containing (in order of addition) test compounds, 1.0 nM [^3H]ketanserin, and approximately 75 μg protein are incubated for 120 minutes at room temperature. Bound radioligand is separated by rapid filtration under reduced pressure through Whatman GF/B glass fiber filters previously treated with 0.3% polyethyleneimine. Radioactivity retained on the filter is determined by liquid scintillation spectrophotometry.

[2] = target: T2, dopamine D2 receptor (Homo sapiens, UniProt P14416); experiment: Dopamine D2 receptor binding ([3H]spiperone, CHO-hD2L membranes)
T2 construct: expressed in transfected cells; host or cells: CHO cells (CHO-hD2L), membrane preparation
Text: as §1
Dopamine D2 Receptor Binding:
[^3H]Spiperone binding to a membrane preparation from CHO-hD2L cells is carried out in 250 μl of 50 mM Tris-HCl buffer containing 100 mM NaCl, 1 mM MgCl2 and 1% DMSO at pH 7.4. Duplicate samples containing (in order of addition) the test compounds, 0.4 nM [^3H]spiperone and approximately 12 μg protein are incubated for 120 minutes at room temperature. Bound radioligand is separated by rapid filtration under reduced pressure through Whatman GF/B glass fiber filters previously treated with 0.3% polyethyleneimine. Radioactivity retained on the filter is determined by liquid scintillation spectrophotometry.
The title compounds of Examples 1-120 were tested using the above assay, in which specific binding determined in the presence of 1 mM haloperidol was 95%.

T1 sequence (P28223 whole entry): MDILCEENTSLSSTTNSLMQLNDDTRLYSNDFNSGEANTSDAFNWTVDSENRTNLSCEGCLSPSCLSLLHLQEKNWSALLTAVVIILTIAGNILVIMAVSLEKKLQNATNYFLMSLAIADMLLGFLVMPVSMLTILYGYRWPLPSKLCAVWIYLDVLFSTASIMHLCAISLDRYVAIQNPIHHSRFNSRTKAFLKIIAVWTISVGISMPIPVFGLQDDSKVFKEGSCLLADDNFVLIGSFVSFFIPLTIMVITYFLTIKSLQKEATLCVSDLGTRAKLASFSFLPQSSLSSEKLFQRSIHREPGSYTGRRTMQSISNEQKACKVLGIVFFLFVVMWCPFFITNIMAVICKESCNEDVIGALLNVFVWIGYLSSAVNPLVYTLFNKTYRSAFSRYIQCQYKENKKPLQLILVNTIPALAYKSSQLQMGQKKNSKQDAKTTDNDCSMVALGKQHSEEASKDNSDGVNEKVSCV
T2 sequence (P14416 whole entry): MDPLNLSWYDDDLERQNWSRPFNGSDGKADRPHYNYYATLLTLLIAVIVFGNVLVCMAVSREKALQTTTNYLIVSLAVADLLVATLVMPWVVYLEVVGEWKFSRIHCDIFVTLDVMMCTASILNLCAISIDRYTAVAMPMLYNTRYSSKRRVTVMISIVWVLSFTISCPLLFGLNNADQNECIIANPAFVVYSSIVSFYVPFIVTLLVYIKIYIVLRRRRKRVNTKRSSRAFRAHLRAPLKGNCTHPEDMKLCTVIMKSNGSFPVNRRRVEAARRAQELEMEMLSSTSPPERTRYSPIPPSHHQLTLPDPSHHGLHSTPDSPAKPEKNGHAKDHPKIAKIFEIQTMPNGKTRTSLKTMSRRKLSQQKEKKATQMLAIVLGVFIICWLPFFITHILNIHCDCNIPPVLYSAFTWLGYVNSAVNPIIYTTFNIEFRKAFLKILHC

Structure (SMILES)	melting point	Ki [1]	Ki [2]
CC1(C)C(=O)C(C)(C)c2cc(CCCN3CCN(c4noc5ccccc45)CC3)ccc21.CS(=O)(=O)O	200 to 203 °C (dec.)	–	–
CNC1C(C)(C)c2ccc(CCN3CCN(c4nsc5ccccc45)CC3)cc2C1(C)C.CS(=O)(=O)O (stereo not shown)	200 to 203 °C (dec.)	–	–
CC(=O)N(C)C1C(C)(C)c2ccc(CCN3CCN(c4nsc5ccccc45)CC3)cc2C1(C)C.CS(=O)(=O)O (stereo not shown)	248 to 250 °C	–	–
CC(=O)NC1C(C)(C)c2ccc(CCN3CCN(c4noc5ccccc45)CC3)cc2C1(C)C.CS(=O)(=O)O (stereo not shown)	197 to 205 °C	–	–
CCNC1Cc2cc(CCN3CCN(c4nsc5ccccc45)CC3)ccc2C1(C)C.CS(=O)(=O)O (stereo not shown)	115 to 125 °C (dec.)	–	–
CCN(C(C)=O)C1Cc2cc(CCN3CCN(c4nsc5ccccc45)CC3)ccc2C1(C)C.CS(=O)(=O)O (stereo not shown)	60 to 70 °C	–	–
CCNC1Cc2ccc(CCN3CCN(c4nsc5ccccc45)CC3)cc2C1(C)C.CS(=O)(=O)O (stereo not shown)	125 to 135 °C	–	–
CCN(C(C)=O)C1Cc2ccc(CCN3CCN(c4nsc5ccccc45)CC3)cc2C1(C)C.CS(=O)(=O)O (stereo not shown)	62 to 72 °C	–	–
CC1(C)C(=O)C(C)(C)c2cc(CCN3CCN(c4noc5ccccc45)CC3)ccc21.CS(=O)(=O)O	259 to 261 °C	–	–
CCOC(CN1CCN(c2noc3ccccc23)CC1)c1ccc2c(c1)C(C)(C)C(=O)C2(C)C.CS(=O)(=O)O (stereo not shown)	219 to 222 °C	–	–
CC1(C)C(=O)C(C)(C)c2cc(CCCN3CCN(c4nsc5ccccc45)CC3)ccc21.CS(=O)(=O)O	144 to 147 °C	–	–
CC(=O)NC1Cc2ccc(CCN3CCN(c4nsc5ccccc45)CC3)cc2C1(C)C (racemic)	62 to 72 °C	–	–
CC(=O)NC1Cc2cc(CCN3CCN(c4nsc5ccccc45)CC3)ccc2C1(C)C (racemic) [Example 115, N-{5-[2-(4-BENZO[D]ISOTHIAZOL-3-YL-PIPERAZIN-1-YL)-ETHYL]-1,1-DIMETHYL-INDAN-2-YL}-ACETAMIDE]	58 to 68 °C	–	–
O=C(Cc1ccoc1)NC1CCc2ccc(CCN3CCN(c4nsc5ccccc45)CC3)cc21 (stereo not shown) [Example 56, N-{6-[2-(4-BENZO[D]ISOTHIAZOL-3-YL-PIPERAZIN-1-YL)-ETHYL]-INDAN-1-YL}-2-FURAN-3-YL-ACETAMIDE]	–	0.55 nM	5 nM
O=C(NC1CCc2ccc(CCN3CCN(c4nsc5ccccc45)CC3)cc21)c1ccno1 (stereo not shown) [Example 58, ISOXAZOLE-5-CARBOXYLIC ACID {6-[2-(4-BENZO[D]ISOTHIAZOL-3-YL-PIPERAZIN-1-YL)-ETHYL]-INDAN-1-YL}-AMIDE]	–	0.03 nM	3 nM
CC(=O)N[C@H]1Cc2ccc(CCN3CCN(c4nsc5ccccc45)CC3)cc2C1 [Example 60, (S)(+)-N-{5-[2-(4-BENZO[D]ISOTHIAZOL-3-YL-PIPERAZIN-1-YL)-ETHYL]-INDAN-2-YL}-ACETAMIDE]	–	0.09 nM	9 nM
CC1(C)C(=O)C(C)(C)c2cc(C(O)CN3CCN(c4nsc5ccccc45)CC3)ccc21 (stereo not shown) [Example 77, 5-[2-(4-BENZO[D]ISOTHIAZOL-3-YL-PIPERAZIN-1-YL)-1-HYDROXYETHYL]-1,1,3,3-TETRAMETHYL-INDAN-2-ONE]	189 to 191 °C	–	–
CC1(C)C(=O)C(C)(C)c2cc(C(F)CN3CCN(c4nsc5ccccc45)CC3)ccc21 (stereo not shown) [Example 78, 5-[2-(4-BENZO[D]ISOTHIAZOL-3-YL-PIPERAZIN-1-YL)-1-FLUORO-ETHYL]-1,1,3,3-TETRAMETHYL-INDAN-2-ONE]	64 to 73 °C	–	–
CC1(C)c2ccc(C(F)CN3CCN(c4nsc5ccccc45)CC3)cc2C(C)(C)C1O (stereo not shown) [Example 79, 5-[2-(4-BENZO[D]ISOTHIAZOL-3-YL-PIPERAZIN-1-YL)-1-FLUORO-ETHYL]-1,1,3,3-TETRAMETHYL-INDAN-2-OL]	49 to 54 °C	–	–
CC1(C)c2ccc(C(O)CN3CCN(c4nsc5ccccc45)CC3)cc2C(C)(C)C1O (stereo not shown) [Example 80, 5-[2-(4-BENZO[D]ISOTHIAZOL-3-YL-PIPERAZIN-1-YL)-1-HYDROXY-ETHYL]-1,1,3,3-TETRAMETHYL-INDAN-2-OL]	88 to 97 °C	–	–
CC1(C)C(=O)C(C)(C)c2cc(CCN3CCN(c4nsc5ccccc45)CC3)ccc21 [Example 82, 5-[2-(4-BENZO[D]ISOTHIAZOL-3-YL-PIPERAZIN-1-YL)-ETHYL]-1,1,3,3-TETRAMETHYL-INDAN-2-ONE]	122 to 126 °C	–	–
CC1(C)c2ccc(CCN3CCN(c4nsc5ccccc45)CC3)cc2C(C)(C)C1O (stereo not shown) [Example 83, 5-[2-(4-BENZO[D]ISOTHIAZOL-3-YL-PIPERAZIN-1-YL)-ETHYL]-1,1,3,3-TETRAMETHYL-INDAN-2-OL]	47 to 49 °C	–	–
CNC(CN1CCN(c2nsc3ccccc23)CC1)c1ccc2c(c1)C(C)(C)C(O)C2(C)C (stereo not shown) [Example 85, 5-[2-(4-BENZO[D]ISOTHIAZOL-3-YL-PIPERAZIN-1-YL)-1-METHYLAMINO-ETHYL]-1,1,3,3-TETRAMETHYL-INDAN-2-OL]	96 to 101 °C	–	–
CC1(C)c2ccc(C(O)CN3CCN(c4n[nH]c5ccccc45)CC3)cc2C(C)(C)C1O (stereo not shown) [Example 86, 5-{1-HYDROXY-2-[4-(1H-INDAZOL-3-YL)-PIPERAZIN-1-YL]-ETHYL}-1,1,3,3-TETRAMETHYL-INDAN-2-OL]	104 to 110 °C	–	–
CC(=O)NC1C(C)(C)c2ccc(CCN3CCN(c4nsc5ccccc45)CC3)cc2C1(C)C (stereo not shown) [Example 109, N-{5-[2-(4-BENZO[D]ISOTHIAZOL-3-YL-PIPERAZIN-1-YL)-ETHYL]-1,1,3,3-TETRAMETHYL-INDAN-2-YL}-ACETAMIDE]	75 to 80 °C	–	–
